pKd: −log10 of the molar value.
Legend:
[1] = tested on: CD1d-restricted Vα14 NKT hybridoma cell, DN32.D3; test: Stimulation of NKT hybridoma DN32.D3 by lipid-pulsed APCs, IL-2 release; assay type: cell-based, mice; details: for presentation by DCs isolated from CD1-TD mice: DCs with disrupted cytoplasmic tail of CD1d, data not shown; for presentation by splenocytes to DN32.D3 (IL-2 release): irradiated splenocytes, 24 hours
Method: Compounds PBS-31, PBS-32, and control lipids were evaluated for their ability to stimulate a canonical CD1d-restricted Vα14 NKT hybridoma cell, DN32.D3 in an assay described by Lantz, et al., J. Exp. Med. 180: 1097-1106 (1994). Irradiated splenocytes were pulsed with decreasing concentrations of the lipids and control compounds, and incubated with DN32.D3 cells for 24 hours. Supernatants were harvested and IL-2 release was measured using a [^3H]-thymidine incorporation assay with an IL-2 dependent cell line as described by Cantu, et al., J. Immunol. 170:4673-4682 (2003).
Similar results were obtained when mature DCs were used as the APCs (data not shown). […] Therefore, presentation of PBS-31 and PBS-32 and concomitant stimulation of NKT cells is dependent on lysosomal targeting of CD1d.

human NKT cell line = test: Activation of human NKT cell line, IL-4 and IFN-γ ELISA; assay type: cell-based; details: 24 hours incubation with PBLs or matured DCs
Method: The agonistic activity of PBS-31 and PBS-32 was examined for human NKT cells. A human NKT cell line was stimulated with irradiated peripheral blood lymphocytes (PBLs) or in vitro matured DCs in the presence of PBS-31, PBS-32 and control lipid, iGB3. (Mattner et al., Nature 434: 525-529 (2005) incorporated herein by reference in its entirety.) After 24 hours incubation, supernatants were harvested and assayed for the presence of IL-4 and IFN-γ by ELISA.

DN32.D3 cells = test: DC-free assay: plate-coated murine CD1d, DN32.D3 cells, IL-2 production; assay type: cell-based; details: for requirement of processing by DCs for stimulation of NKT cells: plate-coated murine CD1d, with saposin B, 24 hours, data not shown
Method: To determine whether presentation of PBS-31 and PBS-32 to NKT cells was dependent on processing by DCs, a DC-free assay was used in which murine CD1d was coated on 96 well plates. PBS-31, PBS-32 and control compounds were added at various concentrations in the presence and absence of saposin B. DN32.D3 cells were added and supernatants were harvested after 24 hours and production of IL-2 was measured.

[2] = tested on: murine Vα14 NKT cell line; test: Lipid-loaded CD1d tetramer staining of NKT cell line, FACS; assay type: binding; details: lipid-loaded CD1d tetramers; data not shown
Method: PBS-32-loaded CD1d tetramers, as well as control αGalCer tetramers, were prepared as described in Benlagha et al., J. Exp. Med. 191: 1895-1903 (2000) incorporated herein by reference in its entirety. The resulting tetramers were used to stain a murine Vα14 NKT cell line. After washing, the cells were analyzed on a FACSCalibur (BD Biosciences) using FlowJo software.

[3] = tested on: lymphocytic choriomeningitis virus (LCMV); assay type: in vivo, C57BI/6 mice; details: 1 μg intravenous before 10^6 PFU LCMVArm, day 8 post-infection, intracellular IFN-γ
C57BI/6 mice = test: Serum cytokines after intravenous injection, ELISA; assay type: in vivo; details: 1 μg intravenous
Method: In vivo, following intravenous injection of 1 μg of positive control compound, αGalCer, or PBS-32, IFN-γ production in the serum of C57BI/6 mice was measured by ELISA and was very similar for both compounds (2500 pg/ml and 1500 pg/ml at 24 hours, respectively). IL-4 was undetectable following PBS-32 injection. […] At eight hours post-injection, PBS-32 induced 600 pg/ml IFN-γ.

NKT cells = test: Cytokine production by stimulated NKT cells (splenocytes), ELISA; assay type: cell-based; details: 24 hours incubation with splenocytes
Method: NKT cells were stimulated with PBS-32 or control compounds presented by plate-bound CD1d, splenocytes or purified mature DCs. Production of IFN-γ, IL-4, IL-10 and GM-CSF was measured by ELISA. […] The control lipids (glucosyl and galactosyl) were negative in the same assays. Cytokine induction was CD1d-dependent because induction was blocked by anti-CD1d antibodies and no cytokine induction was observed when DCs from CD1d^−/− mice were used (data not shown).

splenic DCs = test: Induction of DC maturation in vivo, FACS of splenic cells; design: species or system mice; details: for DC phenotype (CD40, CD80, CD86, MHC class II expression): CD11c+/CD8+ and CD11c+/CD8− cells
Method: Mice were injected with α-GalCer, PBS-31 and PBS-32 and DC differentiation was examined in splenic DCs by analyzing cell surface marker expression.
Three mice in each group were injected intravenously with 1 μg lipid or vehicle alone. At 24 hours post-injection, CD1d expression was examined on splenic B cells (B220+), macrophages (CD11b+) and DCs (CD11c+) by FACS analysis using a FACScalibur machine and FlowJo analysis software.
The maturation of DCs was analyzed by measuring expression of CD40, CD80, CD86, and MHC class II on CD11c^+/CD8^+ and CD11c^+/CD8^− cells (FIG. 8). […] PBS-32 and αGalCer reached maximal induction between 0.1 and 1 μg (data not shown).
Induction of DC maturation was unaffected in MyD88^−/− and MyD88^−/−TRIF^−/− knock out animals in which the Toll-like receptor pathway is partially, or totally impaired, respectively (data not shown). The CD1d-dependence was confirmed by injecting CD1d^−/− mice with the lipids.

[4] = tested on: ovalbumin-specific CD8+ T cell and IgG responses; test: Adjuvant capability with ovalbumin antigen; assay type: in vivo, mice; details: for H-2Kb/ova257-264 tetramer positive cells in the CD8+ T cell pool: ovalbumin plus 1 μg lipid intravenous, peripheral blood, day 7 post-injection; for IgG anti-ovalbumin response: ovalbumin plus lipid, ELISA, compared to control group
Method: The potential adjuvanticity of PBS-31 and PBS-32 combined with a nominal protein antigen, ovalbumin, was conducted following a protocol similar to that of Fujii et al., J. Exp. Med. 198: 267-279 (2003) and Hermans et al., J. Immunol. 171: 5140-5147 (2003), which are incorporated herein by reference in their entireties. Ovalbumin was injected intravenously either alone or in combination with 1 μg of PBS-31, PBS-32 or PBS-57. […] In the absence of working tetramers to follow MHC class II responses, only CD8+ responses and B cell responses were evaluated.
CD8+ T cell responses were evaluated by enumerating the H-2K^b/ova257-264 tetramer positive cells in peripheral blood at 7 days post-injection and are expressed as the percentage H-2K^b/ova257-264 positive cells in the CD8+ T cell pool. At day 7 post-injection, antigen-specific H-2K^b/ova257-264 tetramer positive cells were increased to about 3% in the PBS-32 injected group whereas they expanded to almost 6% in the PBS-57 treated group (FIG. 9A). […] These strong IgG responses may indirectly reflect a significant boost of the ovalbumin-specific CD4+T helper compartment as well.
When CD1d^−/− mice were injected following the same protocol, no increase in either anti-ovalbumin IgG or in the anti-ovalbumin CD8+ T cells were noted (data not shown).

Vα14/2Cβ TCR = details: previously reported, Cantu et al. 2003; read-out: affinity of the TCR for CD1d-lipid complex; cited from earlier work
CD1d = target: T1, CD1d (Mus musculus, UniProt P11609); test: Loading of CD1d molecules, native isoelectric focusing (IEF) gel assay; assay type: binding; details: 2 μM CD1d, 20 μM lipid, 1 hour at 37° C., no saposin B
T1 sequence (P11609 19-297 limits assumed): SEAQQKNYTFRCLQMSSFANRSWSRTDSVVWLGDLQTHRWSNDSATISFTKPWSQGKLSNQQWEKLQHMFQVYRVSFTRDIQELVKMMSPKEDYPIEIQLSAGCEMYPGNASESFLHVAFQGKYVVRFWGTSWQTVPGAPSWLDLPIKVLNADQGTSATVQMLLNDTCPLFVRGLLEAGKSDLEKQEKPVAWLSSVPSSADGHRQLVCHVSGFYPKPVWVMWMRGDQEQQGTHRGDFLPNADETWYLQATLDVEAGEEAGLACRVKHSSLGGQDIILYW
T1 sequence (P01887 21-119 partner): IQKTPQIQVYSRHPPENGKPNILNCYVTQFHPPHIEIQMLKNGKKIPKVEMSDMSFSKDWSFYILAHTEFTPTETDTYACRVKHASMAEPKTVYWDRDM
Method: Whether PBS-31 and PBS-32 could be efficiently loaded onto CD1d molecules was tested using a native isoelectric focusing (IEF) gel assay in the presence and absence of saposin B. For comparison, PBS-41 and PBS-46 (sulfo-β-galactosylceramides), PBS-36 and PBS-58 (sulfo-α-glucosylceramides) and PBS-35 and PBS-40 (β-glucosylceramides) were also evaluated in this assay.
Each 5 μl reaction contained 2 μM CD1d, 20 μM lipid and 10 μM saposin B. Reactions were incubated for 1 hour at 37° C. prior to gel loading.
Loaded species are indicated by a star in FIG. 3. The lanes of FIG. 3 were loaded as follows: 1, no lipid; 2, αGalCer; 3, PBS-31; 4, PBS-32; 5, no lipid; 6, iGB3; 7, PBS-40; 8, PBS-41; 9, PBS-35; 10, PBS-46; 11, PBS-58; 12, PBS-25 (positive control).

## CCCCCCCCCCCCC/C=C/[C@@H](O)[C@H](CO[C@@H]1O[C@H](CO)[C@@H](O)[C@H](OS(=O)(=O)O)[C@H]1O)NC(=O)CCCCCCCCCCCCCCCCCCCCCCCCC [PBS-32, sulfoglucosylceramide]
[1]
  presentation by DCs isolated from CD1-TD mice: inefficient at presenting
  presentation by splenocytes to DN32.D3 (IL-2 release): efficiently presented
Human NKT cell line
  IFN-γ secretion: able to induce
  IL-4 secretion: almost equivalent amounts
DN32.D3 cells
  relative potency in IL-2 production: consistently more potent than phytoceramide PBS-31
  requirement of processing by DCs for stimulation of NKT cells: does not require processing by DCs
[2]
  tetramer staining intensity: less intense than for CD1d-αGalCer tetramers but homogenous
[3]
  anti-LCMV CD4+ T cell response (GP61, NP309): significant increase
  anti-LCMV CD8+ T cell response (GP33, NP396, GP276): did equally well
C57BI/6 mice
  IL-4 in serum: undetectable
  timing of IFN-γ production: earlier IFN-γ production than α-GalCer
C57BI/6 mice; at 24 hours
  IFN-γ production in the serum: 1500 pg/mL
C57BI/6 mice; eight hours post-injection
  IFN-γ production in the serum: 600 pg/mL
NKT cells
  GM-CSF secretion: induced secretion
  IFN-γ secretion: induced secretion
  IL-4 secretion: induced secretion
  IL-10 secretion: not IL-10
Splenic DCs; 1 μg intravenous, 24 hours
  DC phenotype (CD40, CD80, CD86, MHC class II expression): mature phenotype
[4]; in combination with ovalbumin
  adjuvant activity with purified protein antigen: had adjuvant activity
[4]
  H-2Kb/ova257-264 tetramer positive cells in the CD8+ T cell pool: about 3%
  IgG anti-ovalbumin response: dramatically boosted

## isoglobotrihexosylceramide [iGB3, reference compound]
Human NKT cell line
  IL-4 secretion: almost equivalent amounts

## CCCCCCCCCCCCCCCCCCCCCCCCCC(=O)NC(COC1OC(CO)C(O)C(OS(=O)(=O)O)C1O)C(O)C(O)CCCCCCCCCCCCCC (centres unmarked) [PBS-31]
[1]
  presentation by DCs isolated from CD1-TD mice: inefficient at presenting
  presentation by splenocytes to DN32.D3 (IL-2 release): efficiently presented
Human NKT cell line
  IFN-γ secretion: significantly less
  IL-4 secretion: almost equivalent amounts
DN32.D3 cells
  requirement of processing by DCs for stimulation of NKT cells: does not require processing by DCs
NKT cells
  GM-CSF secretion: induced only GM-CSF
  IFN-γ secretion: induced only GM-CSF
  IL-4 secretion: induced only GM-CSF
  IL-10 secretion: induced only GM-CSF
Splenic DCs; 1 μg intravenous, 24 hours
  DC maturation effect relative to the other lipids: less pronounced effect
  DC phenotype (CD40, CD80, CD86, MHC class II expression): mature phenotype
Splenic DCs; doses up to 50 μg per mouse, data not shown
  lesser potency on DC maturation at increased doses: could not be overcome

## CCCCCCCC/C=C\CCCCCCCCCCCCCC(=O)N[C@@H](CO[C@H]1O[C@H](CNC(C)=O)[C@H](O)[C@H](O)[C@H]1O)[C@H](O)[C@H](O)CCCCCCCCCCCCCC [PBS-57, reference compound]
[4]
  H-2Kb/ova257-264 tetramer positive cells in the CD8+ T cell pool: ~6%
  IgG anti-ovalbumin response: dramatically boosted

## CCCCCCCCCCCCCCCCCCCCCCCCCC(=O)N[C@@H](CO[C@H]1O[C@H](CO)[C@H](O)[C@H](O)[C@H]1O)[C@H](O)[C@H](O)CCCCCCCCCCCCCC [αGalCer, α-galactosylceramide, reference compound]
Vα14/2Cβ TCR
  pKd: 7.52
[3]
  anti-LCMV CD4+ T cell response (GP61, NP309): unchanged
  anti-LCMV CD8+ T cell response (GP33, NP396, GP276): significantly increase
C57BI/6 mice; at 24 hours
  IFN-γ production in the serum: 2500 pg/mL
Splenic DCs; 1 μg intravenous, 24 hours
  DC phenotype (CD40, CD80, CD86, MHC class II expression): mature phenotype

## CCCCCCCCCCCCC/C=C/[C@@H](O)[C@H](CO[C@H]1O[C@H](CO)[C@@H](O)[C@H](OS(=O)(=O)O)[C@H]1O)NC(=O)CCCCCCCCCCCCCCCCCCCCCCCCC [PBS-58]
CD1d
  loading of CD1d in the absence of saposin B: marginally loaded in the absence of saposin B

## CCCCCCCCCCCCCCCCCCCCCCCCCC(=O)NC(COC1OC(CO)C(O)C(OS(=O)(=O)O)C1O)C(O)C(O)CCCCCCCCCCCCCC (centres unmarked) [PBS-36]
CD1d
  loading of CD1d in the absence of saposin B: loaded onto CD1d in the absence of saposin B

## CCCCCCCCCCCCCC[C@@H](O)[C@@H](O)[C@H](CO[C@H]1O[C@H](CO)[C@H](O)[C@H](O)[C@H]1O)NC(=O)CCCCCCC [PBS-25]
CD1d
  loading of CD1d in the absence of saposin B: marginally loaded in the absence of saposin B
